pIC50: −log10 of the molar value.

A word on the pIC50: it is the negative decadic logarithm of the IC50, by convention in mol/L.

In this test the target is T1, human TLR7 (Homo sapiens, UniProt Q9NYK1).
T1 construct: host or cells: HEK-Blue cells
T1 sequence (Q9NYK1 27-1049): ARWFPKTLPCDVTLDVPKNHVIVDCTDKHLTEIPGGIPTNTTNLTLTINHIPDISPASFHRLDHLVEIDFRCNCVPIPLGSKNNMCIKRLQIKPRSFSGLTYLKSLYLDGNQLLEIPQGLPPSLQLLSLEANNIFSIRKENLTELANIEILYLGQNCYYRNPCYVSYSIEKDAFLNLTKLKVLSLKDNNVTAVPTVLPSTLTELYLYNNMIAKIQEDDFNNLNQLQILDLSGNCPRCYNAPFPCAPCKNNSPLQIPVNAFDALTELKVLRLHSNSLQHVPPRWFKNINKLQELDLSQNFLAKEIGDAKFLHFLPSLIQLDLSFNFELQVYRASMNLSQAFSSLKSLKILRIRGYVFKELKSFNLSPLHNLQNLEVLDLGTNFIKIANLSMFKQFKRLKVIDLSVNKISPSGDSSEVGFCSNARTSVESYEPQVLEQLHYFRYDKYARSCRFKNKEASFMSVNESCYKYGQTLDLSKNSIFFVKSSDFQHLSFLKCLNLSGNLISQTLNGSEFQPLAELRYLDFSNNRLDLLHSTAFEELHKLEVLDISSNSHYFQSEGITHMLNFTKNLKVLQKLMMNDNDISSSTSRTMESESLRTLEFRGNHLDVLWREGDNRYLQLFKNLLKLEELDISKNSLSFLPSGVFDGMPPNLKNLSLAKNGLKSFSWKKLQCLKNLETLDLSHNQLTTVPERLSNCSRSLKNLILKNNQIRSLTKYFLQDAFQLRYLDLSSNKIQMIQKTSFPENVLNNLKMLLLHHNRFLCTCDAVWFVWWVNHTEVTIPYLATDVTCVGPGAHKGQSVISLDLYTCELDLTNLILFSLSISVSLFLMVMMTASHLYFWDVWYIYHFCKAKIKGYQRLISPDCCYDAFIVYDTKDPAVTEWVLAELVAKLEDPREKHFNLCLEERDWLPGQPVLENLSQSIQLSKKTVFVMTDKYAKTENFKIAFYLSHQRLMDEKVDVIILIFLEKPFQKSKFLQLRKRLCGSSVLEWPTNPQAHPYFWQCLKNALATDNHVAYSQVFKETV
As to the kind of experiment: TLR7 inhibition reporter assay (HEK-Blue SEAP). It is filed as cell-based. The settings on record: HEK-Blue cells overexpressing human TLR7, gardiquimod 7.5 μM, 22 hour incubation. The method, boiled down:
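SEAP readout via HEK-Blue Detection medium after 22 h at 37 °C, 5% CO2 defines inhibition, normalized between agonist-plus-DMSO wells and a reference inhibitor. Compound dose range 0.05 nM–50 μM; TLR7 cells at 15,000/well (gardiquimod), TLR8 at 20,000/well (R848).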
In turn, `COC1CN(C2CCC(n3c(=O)[nH]c4cc(-c5cn6ncnc6c(C)c5C)c(C(C)C)cc43)CC2)C1` (single isomer, unassigned) [Example 278, 5-(7,8-dimethyl-[1,2,4]triazolo[1,5-a]pyridin-6-yl)-6-isopropyl-1-(4-(3-methoxyazetidin-1-yl)cyclohexyl)-1,3-dihydro-2H-benzo[d]imidazol-2-one] gave a pIC50 of 8.10.

On to `CCN[C@H]1CC[C@H](n2c(=O)[nH]c3cc(-c4cc(C)c5ncnn5c4)c(C)cc32)CC1` [Example 24, 1-((1r,4s)-4-(ethylamino)cyclohexyl)-6-methyl-5-(8-methyl-[1,2,4]triazolo[1,5-a]pyridin-6-yl)-1,3-dihydro-2H-benzo[d]imidazol-2-one], for which the negative-log IC50 (pIC50) is 7.91.

`COc1cc(-c2cc3[nH]c(=O)n(C4CCC(N5C6CCC5COC6)CC4)c3cc2C(C)C)cn2ncnc12` (single isomer, unassigned) [Example 252, 1-(4-(3-oxa-8-azabicyclo[3.2.1]octan-8-yl)cyclohexyl)-6-isopropyl-5-(8-methoxy-[1,2,4]triazolo[1,5-a]pyridin-6-yl)-1,3-dihydro-2H-benzo[d]imidazol-2-one]: the pIC50 is 7.39.

As for `Cc1cc2c(cc1-c1cc(C)c3ncnn3c1)[nH]c(=O)n2[C@@H]1CCCN(CCC(F)(F)F)C1` [Example 29, (R)-6-methyl-5-(8-methyl-[1,2,4]triazolo[1,5-a]pyridin-6-yl)-1-(1-(3,3,3-trifluoropropyl)piperidin-3-yl)-1,3-dihydro-2H-benzo[d]imidazol-2-one], the pIC50 was 6.68.

For `COc1cc(-c2cc3[nH]c(=O)n(C4CCC(N5C[C@@H](F)[C@@H](F)C5)CC4)c3cc2C(C)C)cn2ncnc12` (single isomer, unassigned) [Example 292], the pIC50 is 8.66.

`Cc1c(-c2cc3[nH]c(=O)n(C4CCC(N5CCC6(CC5)COC6)CC4)c3cc2C(C)C)cn2ncnc2c1C` (single isomer, unassigned) [Example 282, 1-(4-(2-oxa-7-azaspiro[3.5]nonan-7-yl)cyclohexyl)-5-(7,8-dimethyl-[1,2,4]triazolo[1,5-a]pyridin-6-yl)-6-isopropyl-1,3-dihydro-2H-benzo[d]imidazol-2-one] gave a pIC50 of 8.00.

As to `Cc1cc2c(cc1-c1cc(C)c3ncnn3c1)[nH]c(=O)n2[C@H]1CC[C@@H](N)CC1` [1 EE], the pIC50 was 7.71.

Turning to `CCC(C)N1CCC[C@@H](n2c(=O)[nH]c3cc(-c4cc(C)c5ncnn5c4)c(C)cc32)C1` (stereo partly drawn) [Example 28, 1-((3R)-1-(sec-butyl)piperidin-3-yl)-6-methyl-5-(8-methyl-[1,2,4]triazolo[1,5-a]pyridin-6-yl)-1,3-dihydro-2H-benzo[d]imidazol-2-one], the pIC50 was 7.56.

As to `COc1cc(-c2cc3[nH]c(=O)n(C4CCC(N5CCC(F)(F)C5)CC4)c3cc2C(C)C)cn2ncnc12` (single isomer, unassigned) [Example 294, 1-(4-(3,3-difluoropyrrolidin-1-yl)cyclohexyl)-6-isopropyl-5-(8-methoxy-[1,2,4]triazolo[1,5-a]pyridin-6-yl)-1,3-dihydro-2H-benzo[d]imidazol-2-one], the pIC50 was 8.92.

Molecule `COc1cc(-c2cc3[nH]c(=O)n(C4CCC(N5CCSCC5)CC4)c3cc2C(C)C)cn2ncnc12` (stereo not drawn) [Example 250, 6-isopropyl-5-(8-methoxy-[1,2,4]triazolo[1,5-a]pyridin-6-yl)-1-(4-thiomorpholinocyclohexyl)-1,3-dihydro-2H-benzo[d]imidazol-2-one] gave a pIC50 of 8.70.

In turn, `COc1c(C)c(-c2cc3[nH]c(=O)n(C4CCC(NCC5(S(C)(=O)=O)CC5)CC4)c3cc2C(C)C)cn2ncnc12` (single isomer, unassigned) [Example 260] showed a pIC50 of 7.38.

The molecule `COc1c(C)c(-c2cc3[nH]c(=O)n(C4CCC(N5CCCOCC5)CC4)c3cc2C(C)C)cn2ncnc12` (single isomer, unassigned) [Example 261, 1-(4-(1,4-oxazepan-4-yl)cyclohexyl)-6-isopropyl-5-(8-methoxy-7-methyl-[1,2,4]triazolo[1,5-a]pyridin-6-yl)-1,3-dihydro-2H-benzo[d]imidazol-2-one] gave a pIC50 of 7.81.

As for `COc1c(C)c(-c2cc3[nH]c(=O)n(C4CCC(N5CCCOCC5)CC4)c3cc2C(C)C)cn2ncnc12` (single isomer, unassigned) [Example 262, 1-(4-(1,4-oxazepan-4-yl)cyclohexyl)-6-isopropyl-5-(8-methoxy-7-methyl-[1,2,4]triazolo[1,5-a]pyridin-6-yl)-1,3-dihydro-2H-benzo[d]imidazol-2-one], the pIC50 is 8.64.

Molecule `COc1cc(-c2cc3[nH]c(=O)n(C4CCC(N5C[C@@H](F)[C@@H](F)C5)CC4)c3cc2C(C)C)cn2ncnc12` (single isomer, unassigned) [Example 293] had a pIC50 of 7.96.

Take `COc1cc(-c2cc3[nH]c(=O)n(C4CCC(N(C)CCC(F)(F)F)CC4)c3cc2C(C)C)cn2ncnc12` (single isomer, unassigned) [Example 249, 6-isopropyl-5-(8-methoxy-[1,2,4]triazolo[1,5-a]pyridin-6-yl)-1-(4-(methyl(3,3,3-trifluoropropyl)amino)cyclohexyl)-1,3-dihydro-2H-benzo[d]imidazol-2-one]: the pIC50 was 9.30.

The molecule `COc1cc(-c2cc3[nH]c(=O)n([C@@H]4CCCNC4)c3cc2C)cn2ncnc12` [1 EH, (R)-5-(8-methoxy-[1,2,4]triazolo[1,5-a]pyridin-6-yl)-6-methyl-1-(piperidin-3-yl)-1,3-dihydro-2H-benzo[d]imidazol-2-one] gave a pIC50 of 7.37.

With `COc1cc(-c2cc3[nH]c(=O)n(C4CCC(N5CC6(COC6)C5)CC4)c3cc2C(C)C)cn2ncnc12` (stereo not drawn) [Example 254, 1-(4-(2-oxa-6-azaspiro[3.3]heptan-6-yl)cyclohexyl)-6-isopropyl-5-(8-methoxy-[1,2,4]triazolo[1,5-a]pyridin-6-yl)-1,3-dihydro-2H-benzo[d]imidazol-2-one], the pIC50 was 8.17.

`COc1c(C)c(-c2cc3[nH]c(=O)n(C4CCC(N5CCC6(CC5)COC6)CC4)c3cc2C(C)C)cn2ncnc12` (single isomer, unassigned) [Example 268, 1-(4-(2-oxa-7-azaspiro[3.5]nonan-7-yl)cyclohexyl)-6-isopropyl-5-(8-methoxy-7-methyl-[1,2,4]triazolo[1,5-a]pyridin-6-yl)-1,3-dihydro-2H-benzo[d]imidazol-2-one]: the pIC50 is 7.80.

`COc1c(C)c(-c2cc3[nH]c(=O)n(C4CCC(N5CC(F)C5)CC4)c3cc2C(C)C)cn2ncnc12` (single isomer, unassigned) [Example 263, 1-(4-(3-fluoroazetidin-1-yl)cyclohexyl)-6-isopropyl-5-(8-methoxy-7-methyl-[1,2,4]triazolo[1,5-a]pyridin-6-yl)-1,3-dihydro-2H-benzo[d]imidazol-2-one] had a pIC50 of 8.10.

`COc1cc(-c2cc3[nH]c(=O)n(C4CCC(N5CC[C@H](F)C5)CC4)c3cc2C(C)C)cn2ncnc12` (stereo partly drawn) [Example 286, (S)-1-(4-(3-fluoropyrrolidin-1-yl)cyclohexyl)-6-isopropyl-5-(8-methoxy-[1,2,4]triazolo[1,5-a]pyridin-6-yl)-1,3-dihydro-2H-benzo[d]imidazol-2-one] gave a pIC50 of 9.15.

In turn, `COc1cc(-c2cc3[nH]c(=O)n([C@@H]4CCCNC4)c3cc2C(F)(F)F)cn2ncnc12` [110 F, (R)-5-(8-methoxy-[1,2,4]triazolo[1,5-a]pyridin-6-yl)-1-(piperidin-3-yl)-6-(trifluoromethyl)-1,3-dihydro-2H-benzo[d]imidazol-2-one] showed a pIC50 of 7.55.

`Cc1cc(-c2cc(C)c3ncnn3c2)cc2[nH]c(=O)n(C3CCNCC3)c12` [106 F, 7-methyl-5-(8-methyl-[1,2,4]triazolo[1,5-a]pyridin-6-yl)-1-(piperidin-4-yl)-1,3-dihydro-2H-benzo[d]imidazol-2-one] gave a pIC50 of 7.30.

In turn, `Cc1cc2c(cc1-c1cc(C)c3ncnn3c1)[nH]c(=O)n2[C@@H]1CCCN(C2CCOCC2)C1` [Example 27, (R)-6-methyl-5-(8-methyl-[1,2,4]triazolo[1,5-a]pyridin-6-yl)-1-(1-(tetrahydro-2H-pyran-4-yl)piperidin-3-yl)-1,3-dihydro-2H-benzo[d]imidazol-2-one] had a pIC50 of 7.10.

Turning to `Cc1cc2c(cc1-c1cc(C)c3ncnn3c1)[nH]c(=O)n2C1CCCNC1` (stereo not drawn) [1 EC, 6-methyl-5-(8-methyl-[1,2,4]triazolo[1,5-a]pyridin-6-yl)-1-(piperidin-3-yl)-1,3-dihydro-2H-benzo[d]imidazol-2-one], the pIC50 was 6.98.

Values taken from US12187723B2 (BRISTOL-MYERS SQUIBB COMPANY, priority 2019, dated 2025).
